Where a name gives a salt, the structure may show the parent alone.
How the values were obtained:
[1] = target: full-length FLAG-tagged B-Raf(V600E) (Homo sapiens (Human), UniProt P15056, V600E); experiment: BRAF V600E enzyme assay (TR-FRET competitive displacement); format: binding; conditions: averaged IC50; TR-FRET tracer displacement, 60 min
Protocol: A competitive displacement assay was configured for B-Raf that monitors the amount of a fluorescently-tagged “tracer” bound to B-Raf via TR-FRET from an anti-tag Eu-labeled antibody also bound to B-Raf. For full-length FLAG-tagged B-Raf(V600E), the assay mixtures consisted of 25 mM K^+HEPES, pH 7.4, 10 mM MgCl2, 0.01% Triton X-100, 1 mM DTT, 2% DMSO (from compound), 50 nM Tracer 1710 (ThermoFisher, PR9176A), 0.5 nM Eu anti-FLAG (M2)-cryptate Ab (Cisbio, 61FG2KLB) and 5 nM full-length, N-terminally FLAG-tagged B-Raf(V600E) (Origene Technologies, TP700031. Compounds were typically diluted in DMSO across an 11-point dosing range created using a 3-fold serial dilution protocol at a top dose of 10 μM. The assay was run in 384-well, polystyrene, low-volume, non-treated, white microtiter plates (Costar 4512) in a final volume of 12 μL. Low control wells included 1 μM of a potent B-Raf inhibitor as a control. The assays were incubated at ambient temperature (typically 22° C.) for 60 min and then read on a PerkinElmer EnVision microplate reader using standard TRF settings (λEx=320 nm, λEm=615 & 665 nm). The ratioed counts (665 nm/615 nm) were converted to percent of control (POC) using the following equation:
[formula] • where: • Xmax Average Uninhibited Controls • Xmin Average Background
A 4-parameter logistic model was the fit to the POC data for each compound. From that fit, the IC50 was estimated and is defined as the concentration of compound at which the best-fit curve crosses 50 POC.

A375 cells = experiment: Cellular phospho-ERK inhibition assay in A375 cells; format: cell-based; conditions: Homo sapiens, A-375, A375 cells (head prints A357), 2 hours treatment, read-out: A357 cell IC50
Protocol: A375 and H1755 cells were obtained from the American Type Culture Collection (ATCC, Rockville, MD). A375 cells were maintained in DMEM growth medium containing 10% FBS. H1755 cells were maintained in RPMI growth medium containing 10% FBS.
Cells were harvested according to standard protocols, counted and plated onto flat-bottom, 96-well tissue culture plates (Costar #3599) at 2.5×10^4 cells/well for A375 cells and 1.5×10^4 cells/well for H1755 cells in 100 μL/well of growth medium containing 10% FBS. After an overnight incubation at 37° C. with 5% CO2 cells were treated for 2 hours at 37° C., 5% CO2 with compounds prepared as a 9-point, 1:3.33 fold dilution series with final compound concentrations ranging from 66 pM-10 μM and a constant DMSO concentration of 0.25%. Control wells contained either 0.25% DMSO alone (uninhibited control) or 10 μM binimetinib (complete inhibition control). The levels of phosphorylated ERK are determined using an In Cell Western protocol: following compound incubation, growth medium was discarded, and cells were fixed with 0.4% formaldehyde in PBS for 20 minutes at room temperature. Cells were permeabilized with 100% methanol for 10 minutes at room temperature. Plates were washed with PBS containing 0.05% Tween-20 and blocked for 1 hour at room temperature with LI-COR Blocking Buffer (LI-COR Biosciences; Cat #927-40000). Plates were then incubated for 2 hours at room temperature with 50 μL of a 1:400 dilution of anti-phospho-ERK1/2 (Thr202/Tyr204) (Cell Signaling; Cat #9101) and a 1:1000 dilution of anti-GAPDH (Millipore; Cat #MAB374) in LI-COR blocking buffer containing 0.05% Tween-20. Plates were washed with PBS containing […] Tween-20 then incubated at room temperature for 1 hour with 50 μL of a 1:1000 dilution of anti-rabbit AlexaFluor 680 (Life Technologies; Cat #A21109) and a 1:1000 dilution of anti-mouse IRDye 800CW (LI-COR; Cat #926-32210) in LI-COR blocking buffer containing 0.05% Tween-20. Plates were analyzed by reading on an Odyssey CLx infrared scanner. For each well, the phospho-ERK signal was normalized to the GAPDH signal and converted to POC using the following equation:
[formula] • Where: • Xmax Average Uninhibited Controls • Xmin Average Complete Inhibition Controls IC50 values were then calculated using a 4-parameter fit in XLfit software and are provided in Table A1.

[2] = MDR1 LLC-PK1 and BCRP MDCKII permeability assay: permeability coefficient (Papp); format: in vitro ADME
Excerpt: (§1) Final organic concentration in the assay was 1%.

P-gp (MDR1) = P-gp (MDR1) (Homo sapiens (Human), UniProt P08183); experiment: MDR1 LLC-PK1 permeability assay: efflux ratio; format: in vitro ADME; conditions: pig
Excerpt: as §1

BCRP = BCRP (Homo sapiens (Human), UniProt Q9UNQ0); experiment: BCRP MDCKII permeability assay: efflux ratio; format: in vitro ADME; conditions: dog
Chain of BCRP (Q9UNQ0 whole entry): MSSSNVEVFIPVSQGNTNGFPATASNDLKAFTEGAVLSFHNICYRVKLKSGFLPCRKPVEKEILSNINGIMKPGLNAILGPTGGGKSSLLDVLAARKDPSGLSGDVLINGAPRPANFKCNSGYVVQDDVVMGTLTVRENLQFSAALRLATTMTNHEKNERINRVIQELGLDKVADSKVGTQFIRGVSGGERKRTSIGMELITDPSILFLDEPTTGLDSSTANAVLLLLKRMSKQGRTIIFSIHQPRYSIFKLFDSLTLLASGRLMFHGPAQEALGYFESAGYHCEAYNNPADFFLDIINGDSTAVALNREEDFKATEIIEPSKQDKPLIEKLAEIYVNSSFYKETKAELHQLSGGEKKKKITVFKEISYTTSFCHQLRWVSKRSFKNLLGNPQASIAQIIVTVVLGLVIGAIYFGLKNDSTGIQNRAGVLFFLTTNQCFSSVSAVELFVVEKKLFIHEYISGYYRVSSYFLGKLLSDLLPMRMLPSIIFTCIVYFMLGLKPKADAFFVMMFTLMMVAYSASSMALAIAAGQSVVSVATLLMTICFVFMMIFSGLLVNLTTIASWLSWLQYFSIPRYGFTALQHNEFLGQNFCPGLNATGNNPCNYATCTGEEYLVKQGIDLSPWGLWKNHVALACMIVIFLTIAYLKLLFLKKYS
Protocol: BCRP transfected MDCKII cells were cultured and plated according to manufacturer's recommendations. Assay conditions included with and without the BCRP-specific inhibitor, KO143, at a concentration of 0.3 μM to ascertain the contribution of BCRP to the efflux value of the test compound.
Both positive and negative controls were used to assess functionality of P-gp or BCRP efflux in the assays. […] Final organic concentration in the assay was 1%. All dosing solutions contained 10 μM lucifer yellow to monitor LLC-PK1 or MDCKII cell monolayer integrity.
For the apical to basolateral determination (A to B), 75 μL of the test article in transport buffer were added to the apical side of the individual transwells and 250 μL of basolateral media, without compound or lucifer yellow, were added to each well. For the basolateral to apical determination (B to A), 250 μL of test article in transport buffer were added to each well and 75 μL transport buffer, without compound or lucifer yellow, were added to each transwell. All tests were performed in triplicate, and each compound was tested for both apical to basolateral and basolateral to apical transport. The plates were incubated for 2 hours on a Lab-Line Instruments Titer Orbital Shaker (VWR, West Chester, PA) at 50 rpm and 37° C. with 5% CO2. All culture plates were removed from the incubator and 50 μL of media were removed from the apical and basolateral portion of each well and added to 150 μL of 1 μM labetalol in 2:1 acetonitrile (acetonitrile): H2O, v/v.
These values were accepted when found to be below 2% for apical to basolateral and 5% basolateral to apical flux across the MDR1-transfected LLC-PK1 or BCRP-transfected MDCKII cell monolayers. The plates were sealed and the contents of each well analyzed by LC-MS/MS. The compound concentrations were determined from the ratio of the peak areas of the compound to the internal standard (labetalol) in comparison to the dosing solution.
The LC-MS/MS system was comprised of an HTS-PAL autosampler (Leap Technologies, Carrboro, NC), an HP1200 HPLC (Agilent, Palo Alto, CA), and a MDS Sciex 4000 Q Trap system (Applied Biosystems, Foster City, CA). […] The total run time, including re-equilibration, for a single injection was 1.2 minutes. Mass spectrometric detection of the analytes was accomplished using the ion spray positive mode.
An efflux ratio is calculated from the mean apical to basolateral (A-B) Papp data and basolateral to apical (B-A) Papp data using the following equation: Efflux ratio=Papp(B-A)/Papp(A-B)

Chain of P-gp (MDR1) (P08183 whole entry, species assumed): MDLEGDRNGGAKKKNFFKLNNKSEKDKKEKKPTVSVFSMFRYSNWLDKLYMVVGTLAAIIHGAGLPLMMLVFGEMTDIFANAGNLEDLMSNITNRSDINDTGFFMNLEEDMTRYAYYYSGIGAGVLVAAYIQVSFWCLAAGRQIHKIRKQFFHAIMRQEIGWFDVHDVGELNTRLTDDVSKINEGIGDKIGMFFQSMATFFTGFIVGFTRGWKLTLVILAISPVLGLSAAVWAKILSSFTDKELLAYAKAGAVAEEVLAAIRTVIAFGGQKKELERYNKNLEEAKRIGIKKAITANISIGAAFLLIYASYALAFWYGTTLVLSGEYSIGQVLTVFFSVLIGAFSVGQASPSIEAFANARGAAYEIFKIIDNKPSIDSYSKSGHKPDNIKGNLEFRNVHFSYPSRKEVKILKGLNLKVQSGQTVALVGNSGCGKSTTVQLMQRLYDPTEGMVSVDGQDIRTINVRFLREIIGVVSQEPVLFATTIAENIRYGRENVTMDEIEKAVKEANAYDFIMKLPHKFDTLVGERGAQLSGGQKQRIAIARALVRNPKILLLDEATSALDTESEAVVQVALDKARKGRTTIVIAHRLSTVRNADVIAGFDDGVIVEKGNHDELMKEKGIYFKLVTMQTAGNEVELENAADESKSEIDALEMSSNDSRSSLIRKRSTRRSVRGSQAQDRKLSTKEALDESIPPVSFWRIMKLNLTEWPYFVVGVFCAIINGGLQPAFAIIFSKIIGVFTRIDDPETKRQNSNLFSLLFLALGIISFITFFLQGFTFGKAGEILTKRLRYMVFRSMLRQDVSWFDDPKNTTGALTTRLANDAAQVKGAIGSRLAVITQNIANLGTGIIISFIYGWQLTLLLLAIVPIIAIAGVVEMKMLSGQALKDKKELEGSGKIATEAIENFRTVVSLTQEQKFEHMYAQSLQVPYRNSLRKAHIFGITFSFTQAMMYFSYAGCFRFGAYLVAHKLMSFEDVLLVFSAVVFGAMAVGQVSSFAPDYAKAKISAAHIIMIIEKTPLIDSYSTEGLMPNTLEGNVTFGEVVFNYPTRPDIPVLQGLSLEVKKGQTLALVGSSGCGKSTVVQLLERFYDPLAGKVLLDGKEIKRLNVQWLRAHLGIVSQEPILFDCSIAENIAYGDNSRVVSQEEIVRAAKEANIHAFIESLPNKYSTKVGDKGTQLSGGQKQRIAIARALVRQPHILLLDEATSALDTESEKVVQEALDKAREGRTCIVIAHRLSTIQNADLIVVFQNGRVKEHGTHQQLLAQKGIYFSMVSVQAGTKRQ
Chain of full-length FLAG-tagged B-Raf(V600E) (P15056 whole entry V600E): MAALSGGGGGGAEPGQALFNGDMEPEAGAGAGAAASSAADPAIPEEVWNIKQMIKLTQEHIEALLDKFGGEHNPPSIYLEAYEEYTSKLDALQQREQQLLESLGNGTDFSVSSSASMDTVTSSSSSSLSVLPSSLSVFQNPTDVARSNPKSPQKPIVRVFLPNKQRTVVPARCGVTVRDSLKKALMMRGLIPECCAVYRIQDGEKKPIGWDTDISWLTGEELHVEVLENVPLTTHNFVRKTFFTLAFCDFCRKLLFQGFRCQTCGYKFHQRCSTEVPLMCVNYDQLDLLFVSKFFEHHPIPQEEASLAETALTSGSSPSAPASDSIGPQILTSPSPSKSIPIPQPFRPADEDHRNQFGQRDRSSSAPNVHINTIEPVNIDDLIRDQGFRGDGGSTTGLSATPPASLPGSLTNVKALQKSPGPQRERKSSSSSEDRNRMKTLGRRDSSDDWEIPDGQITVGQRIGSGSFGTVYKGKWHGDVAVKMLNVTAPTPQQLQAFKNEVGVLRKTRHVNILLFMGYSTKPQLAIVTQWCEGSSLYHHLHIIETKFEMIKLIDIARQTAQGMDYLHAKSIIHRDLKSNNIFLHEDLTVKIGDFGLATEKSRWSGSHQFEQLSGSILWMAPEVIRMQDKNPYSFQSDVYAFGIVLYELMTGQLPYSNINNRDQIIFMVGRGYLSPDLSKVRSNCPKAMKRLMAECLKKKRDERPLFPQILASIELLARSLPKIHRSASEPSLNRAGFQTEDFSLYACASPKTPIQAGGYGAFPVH

Row | Structure (SMILES) | IC50 [1] | IC50 (A375 cells) | Papp at 2 h, 1 µM [2] | efflux ratio at 2 h, 1 µM (P-gp (MDR1)) | efflux ratio at 2 h, 1 µM (BCRP)
1 | COC1CN(S(=O)(=O)Nc2ccc(F)c(Oc3ccc4ncn(C)c(=O)c4c3C)c2Cl)C1 [Example 117, N-(2-chloro-3-((3,5-dimethyl-4-oxo-3,4-dihydroquinazolin-6-yl)oxy)-4-fluorophenyl)-3-methoxyazetidine-1-sulfonamide] | 11 nM | 23 nM | 30 ×10⁻⁶ cm/s | 1.5 | 1.5
2 | Cc1c(Nc2c(F)ccc(NS(=O)(=O)N(C)C3CCC3)c2Cl)ccc2ncn(C)c(=O)c12 [Example 74, N-(2-chloro-3-((3,5-dimethyl-4-oxo-3,4-dihydroquinazolin-6-yl)amino)-4-fluorophenyl)-(N-cyclobutyl-N-methyl)-sulfamide] | 203 nM | 160 nM | – | – | –
3 | Cc1c(Nc2c(F)ccc(NS(=O)(=O)N3CCC4CC4C3)c2Cl)ccc2ncn(C)c(=O)c12 (centres unmarked) [Example 80] | 103 nM | 311 nM | – | – | 0.6
4 | Cc1c(Nc2c(F)ccc(NS(=O)(=O)N3CC(C)C3)c2Cl)ccc2ncn(C)c(=O)c12 [Example 147, N-(2-chloro-3-((3,5-dimethyl-4-oxo-3,4-dihydroquinazolin-6-yl)amino)-4-fluorophenyl)-3-methylazetidine-1-sulfonamide trifluoroacetate] | 19 nM | 67 nM | 28 ×10⁻⁶ cm/s | 1 | –
5 | Cn1cnc2ccc(Nc3c(F)ccc(NS(=O)(=O)N4CC(OC(F)F)C4)c3Cl)c(F)c2c1=O [Example 144, N-(2-chloro-4-fluoro-3-((5-fluoro-3-methyl-4-oxo-3,4-dihydroquinazolin-6-yl)amino)phenyl)-3-(difluoromethoxy)azetidine-1-sulfonamide] | 10 nM | 33 nM | 27 ×10⁻⁶ cm/s | 5.2 | –
6 | Cc1c(Nc2c(F)ccc(NS(=O)(=O)N3CC(C#N)C3)c2Cl)ccc2ncn(C)c(=O)c12 [Example 146, N-(2-chloro-3-((3,5-dimethyl-4-oxo-3,4-dihydroquinazolin-6-yl)amino)-4-fluorophenyl)-3-cyanoazetidine-1-sulfonamide trifluoroacetate] | 27 nM | 31 nM | 17 ×10⁻⁶ cm/s | 6.9 | –
7 | Cc1c(Nc2c(F)ccc(NS(=O)(=O)N3CC(OC(F)(F)F)C3)c2Cl)ccc2ncn(C)c(=O)c12 [Example 162, N-(2-chloro-3-((3,5-dimethyl-4-oxo-3,4-dihydroquinazolin-6-yl)amino)-4-fluorophenyl)-3-(trifluoromethoxy)azetidine-1-sulfonamide] | 114 nM | 1280 nM | – | – | –
8 | Cc1c(Nc2c(F)ccc(NS(=O)(=O)N3CC4(CCC4)C3)c2Cl)ccc2ncn(C)c(=O)c12 [Example 157, N-(2-chloro-3-((3,5-dimethyl-4-oxo-3,4-dihydroquinazolin-6-yl)amino)-4-fluorophenyl)-2-azaspiro[3.3]heptane-2-sulfonamide trifluoroacetate] | – | 886 nM | 23 ×10⁻⁶ cm/s | 1.2 | 1.2
9 | Cc1c(Nc2c(F)ccc(NS(=O)(=O)N3CC(COCF)C3)c2Cl)ccc2ncn(C)c(=O)c12 [Example 164, N-(2-chloro-3-((3,5-dimethyl-4-oxo-3,4-dihydroquinazolin-6-yl)amino)-4-fluorophenyl)-3-((fluoromethoxy)methyl)azetidine-1-sulfonamide trifluoroacetate] | 113 nM | 1400 nM | – | – | –
10 | Cn1cnc2ccc(Nc3c(F)ccc(NS(=O)(=O)N4CC(OC(F)F)C4)c3Cl)c(Cl)c2c1=O [Example 143, N-(2-chloro-3-((5-chloro-3-methyl-4-oxo-3,4-dihydroquinazolin-6-yl)amino)-4-fluorophenyl)-3-(difluoromethoxy)azetidine-1-sulfonamide] | – | 45 nM | 16 ×10⁻⁶ cm/s | 2.6 | 3.9
11 | COC1CCN(S(=O)(=O)Nc2ccc(F)c(Nc3ccc4ncn(C)c(=O)c4c3C)c2Cl)CC1 [Example 75, N-(2-chloro-3-((3,5-dimethyl-4-oxo-3,4-dihydroquinazolin-6-yl)amino)-4-fluorophenyl)-4-methoxypiperidine-1-sulfonamide trifluoroacetate] | 191 nM | 114 nM | – | – | –
12 | Cc1c(Nc2c(F)ccc(NS(=O)(=O)N3CCC(C(F)(F)F)C3)c2Cl)ccc2ncn(C)c(=O)c12 (centres unmarked) [Example 76, N-(2-chloro-3-((3,5-dimethyl-4-oxo-3,4-dihydroquinazolin-6-yl)amino)-4-fluorophenyl)-3-(trifluoromethyl)pyrrolidine-1-sulfonamide trifluoroacetate] | 183 nM | 622 nM | – | – | –
13 | Cc1c(Nc2c(F)ccc(NS(=O)(=O)N3CC4CCC3C4)c2Cl)ccc2ncn(C)c(=O)c12 (centres unmarked) [Example 81, N-(2-chloro-3-((3,5-dimethyl-4-oxo-3,4-dihydroquinazolin-6-yl)amino)-4-fluorophenyl)-2-azabicyclo[2.2.1]heptane-2-sulfonamide trifluoroacetate] | 75 nM | 133 nM | – | – | –
14 | Cc1c(Nc2c(F)ccc(NS(=O)(=O)N3CCC(O)CC3)c2Cl)ccc2ncn(C)c(=O)c12 [Example 77, N-(2-chloro-3-((3,5-dimethyl-4-oxo-3,4-dihydroquinazolin-6-yl)amino)-4-fluorophenyl)-4-hydroxypiperidine-1-sulfonamide trifluoroacetate] | 177 nM | 127 nM | – | – | –
15 | Cc1c(Nc2c(F)ccc(NS(=O)(=O)N3CC(COC(F)(F)F)C3)c2Cl)ccc2ncn(C)c(=O)c12 [Example 156, N-(2-chloro-3-((3,5-dimethyl-4-oxo-3,4-dihydroquinazolin-6-yl)amino)-4-fluorophenyl)-3-((trifluoromethoxy)methyl)azetidine-1-sulfonamide trifluoroacetate] | 202 nM | 872 nM | – | – | –
16 | Cc1c(Nc2c(F)ccc(NS(=O)(=O)N(C)C3CCOC3)c2Cl)ccc2ncn(C)c(=O)c12 (centres unmarked) [Example 72, N-(2-chloro-3-((3,5-dimethyl-4-oxo-3,4-dihydroquinazolin-6-yl)amino)-4-fluorophenyl)-(N-methyl-N-(tetrahydrofuran-3-yl))-sulfamide] | 299 nM | 195 nM | – | – | –
17 | Cc1c(Nc2c(F)ccc(NS(=O)(=O)N(C)C3CC3)c2Cl)ccc2ncn(C)c(=O)c12 [Example 73, N-(2-chloro-3-((3,5-dimethyl-4-oxo-3,4-dihydroquinazolin-6-yl)amino)-4-fluorophenyl)-(N-cyclopropyl-N-methyl)-sulfamide] | 234 nM | 121 nM | – | – | –
18 | Cc1c(Nc2c(F)ccc(NS(=O)(=O)N3CCC4CC43)c2Cl)ccc2ncn(C)c(=O)c12 (centres unmarked) [Example 153, N-(2-chloro-3-((3,5-dimethyl-4-oxo-3,4-dihydroquinazolin-6-yl)amino)-4-fluorophenyl)-2-azabicyclo[3.1.0]hexane-2-sulfonamide trifluoroacetate] | 71 nM | 310 nM | – | – | –

Source: patent publication US12303509B2, “Compounds for the treatment of BRAF-associated diseases and disorders” (Pfizer Inc., priority 2020, dated 2025)
